Assay results taken from PMC8518114, “Safety, tolerability and pharmacokinetics of emodepside, a potential novel treatment for onchocerciasis (river blindness), in healthy male subjects” (British Journal of Clinical Pharmacology, 2021).
Read-outs that look alike come from different tables or passages of the source.

Assays:
[1] = Plasma pharmacokinetics of emodepside, single ascending dose (SAD) and food effect study; format: in vivo, human; conditions: for AUC 0–24 /D / C max /D: dose-normalised; for t ½ 0–24 (dominant half-life): terminal slope of log concentration–time (0–24 h) curve; for half-life: ln2/λz, read-out: Terminal t ½ (converted); for Tmax: median (range)
Description: Emodepside and placebo were supplied as a LSF and a standard immediate‐release (IR) tablet. The LSF was a 0.1% (w/v) solution containing 1 mg emodepside/mL. Conventional IR tablets containing emodepside in crystalline form were supplied in 2 dosage strengths, 5 and 20 mg, for the single ascending dose (SAD) study.
To preclude any dietary effects on the PK of emodepside, subjects in the fasting cohorts fasted for 9 hours before receiving the IP. Subjects in the fed cohort fasted for 10 hours prior to dosing and received a standard high‐calorie, high‐fat breakfast 30 minutes prior to dosing.
Blood samples (5 mL) were collected by venepuncture or via a cannula into EDTA tubes and immediately placed on ice. Samples were centrifuged at 1500 g for 10 minutes at 4°C. The plasma was aliquoted into 2 polypropylene tubes, which were stored at −20°C. Blood samples for PK analysis were taken at the following time points: • SAD: predose and 0.5, 1, 1.5, 2, 2.5, 3, 4, 5, 6, 8, 12, 24, 36, 48, 72, 96, 120, 144 and 168 hours, and 21 days postdose (cohort 1–9) or predose and 0.5, 1, 3, 6, 8, 12, 24, 36, 48, 72, 96, 120, 144 and 168 hours, and 10, 14, 18 and 21 days postdose (cohort 10). • Multiple ascending dose (MAD), as below: • on Day 1: predose and at 0.25, 0.5, 1, 1.5, 2, 2.5, 3, 4, 6, 8, 12 and 15 hours postdose • on Days 2–9: before the morning dose • on Day 10: before and at 0.25, 0.5, 1, 1.5, 2, 2.5, 3, 4, 6, 8, 12 and 15 hours • on Days 11, 12, 13, 14, 15, 18, 21, 24 and 30.
Emodepside plasma concentrations were determined by a validated high performance liquid chromatography–tandem mass spectrometry assay, using a Alltima C18 5 μm 150 mm x 2.1 mm column and an Applied Biosystems API4000 Turbo Ion Spray detector using positive ion mode. Analyst version 1.3.2 or 1.6.3 software, obtained from AB Sciex UK Ltd, Warrington, UK was used for chromatogram data analysis and quantitative calculations. Deuterated emodepside‐D16 was used as the internal standard. The lower limit of quantitation for emodepside in plasma was 1 ng/mL. Values below this limit were not used to calculate the PK parameters, except values that were below the limit of quantification before Cmax, which were set to zero.
The highest observed plasma concentration (Cmax) was determined directly from concentration–time data, as was the time to reach maximum plasma concentration (tmax). The area under the plasma concentration–time curve from time zero (predose) to the time of last quantifiable concentration (AUC0‐last) was calculated using the linear‐log trapezoidal rule. Elimination half‐life (t1/2) was calculated by the equation ln2/λz.
Statistical analyses were performed using SAS version 9.3 (Cary, NC, USA). Demographic data and baseline characteristics were listed and summarised. […] PK parameters were derived from plasma concentration vs. time data using a noncompartmental analysis in Phoenix WinNonlin version 7 (Certara Inc., Princeton, NJ, USA). Plasma concentration vs. time data and PK parameters were listed, and summarised by treatment, using descriptive statistics. Mean concentrations were calculated only if at least ⅔ of the individual concentrations were above the lower limit of quantification. […] Planned sampling times were used to summarise plasma‐concentration data; actual sampling times were used in the derivation of PK parameters.

[2] = rat, in vivo; cited from earlier work
Text: This is in line with nonclinical PK studies in rats and dogs, in which emodepside volume ...

[3] = SAD, single oral 1 mg LSF fasting, mean
[4] = SAD, single oral 2.5 mg LSF fasting, mean
[5] = SAD, single oral 5 mg IRT fasting, mean
[6] = SAD, single oral 5 mg LSF fasting, mean
[7] = SAD, single oral 10 mg LSF Fed, mean
[8] = SAD, single oral 10 mg LSF fasting, mean
[9] = SAD, single oral 20 mg IRT fasting, mean
[10] = SAD, single oral 20 mg LSF fasting, mean
[11] = SAD, single oral 40 mg LSF fasting, mean
[12] = human, in vivo, po, 1 mg, SAD, single oral 1 mg LSF fasting, plasma, HPLC-MS/MS, mean
[13] = human, in vivo, po, 2.5 mg, SAD, single oral 2.5 mg LSF fasting, plasma, HPLC-MS/MS, mean
[14] = human, in vivo, po, 5 mg, SAD, single oral 5 mg IRT fasting, plasma, HPLC-MS/MS, mean
[15] = human, in vivo, po, 5 mg, SAD, single oral 5 mg LSF fasting, plasma, HPLC-MS/MS, mean
[16] = human, in vivo, po, 10 mg, SAD, single oral 10 mg LSF Fed, plasma, HPLC-MS/MS, mean
[17] = human, in vivo, po, 10 mg, SAD, single oral 10 mg LSF fasting, plasma, HPLC-MS/MS, mean
[18] = human, in vivo, po, 20 mg, SAD, single oral 20 mg IRT fasting, plasma, HPLC-MS/MS, mean
[19] = human, in vivo, po, 20 mg, SAD, single oral 20 mg LSF fasting, plasma, HPLC-MS/MS, mean
[20] = human, in vivo, po, 40 mg, SAD, single oral 40 mg LSF fasting, plasma, HPLC-MS/MS, mean

## CC(C)C[C@H]1C(=O)O[C@H](Cc2ccc(N3CCOCC3)cc2)C(=O)N(C)[C@@H](CC(C)C)C(=O)O[C@H](C)C(=O)N(C)[C@@H](CC(C)C)C(=O)O[C@H](Cc2ccc(N3CCOCC3)cc2)C(=O)N(C)[C@@H](CC(C)C)C(=O)O[C@H](C)C(=O)N1C [emodepside]
[1]; SAD, all dose levels and both formulations
  Plasma emodepside concentrations lower in the first 24 hours postdose, based on geometric mean Cmax: approximately 90%
[1]; SAD, single 10-mg dose of the LSF
  AUC0-last in fed relative to fasting conditions: not statistically different
[1]; [3]
  AUC 0–24 /D: 100 [h.ng/mL]/mg
  C max /D: 18.6 [ng/mL]/mg
  t ½ 0–24 (dominant half-life): 8.45 h
[1]; [4]
  AUC 0–24 /D: 100 [h.ng/mL]/mg
  C max /D: 15.0 [ng/mL]/mg
  t ½ 0–24 (dominant half-life): 10.6 h
[1]; [5]
  AUC 0–24 /D: 36.5 [h.ng/mL]/mg
  C max /D: 5.15 [ng/mL]/mg
  t ½ 0–24 (dominant half-life): 10.8 h
[1]; SAD, single oral 5 mg IRT fasting, plasma, HPLC-MS/MS, mean
  AUC 0–24: 183 ng·h/mL
[1]; [6]
  AUC 0–24 /D: 104 [h.ng/mL]/mg
  C max /D: 18.4 [ng/mL]/mg
  t ½ 0–24 (dominant half-life): 11.6 h
[1]; SAD, single oral 5 mg LSF fasting, plasma, HPLC-MS/MS, mean
  AUC 0–24: 522 ng·h/mL
[1]; [7]
  AUC 0–24 /D: 67.3 [h.ng/mL]/mg
  C max /D: 7.19 [ng/mL]/mg
  t ½ 0–24 (dominant half-life): 11.1 h
[1]; [8]
  AUC 0–24 /D: 99.6 [h.ng/mL]/mg
  C max /D: 17.2 [ng/mL]/mg
  t ½ 0–24 (dominant half-life): 10.9 h
[1]; [9]
  AUC 0–24 /D: 11.2 [h.ng/mL]/mg
  C max /D: 1.51 [ng/mL]/mg
  t ½ 0–24 (dominant half-life): 11.3 h
[1]; SAD, single oral 20 mg IRT fasting, plasma, HPLC-MS/MS, mean
  AUC 0–24: 223 ng·h/mL
[1]; [10]
  AUC 0–24 /D: 95.3 [h.ng/mL]/mg
  C max /D: 15.3 [ng/mL]/mg
  t ½ 0–24 (dominant half-life): 10.5 h
[1]; SAD, single oral 20 mg LSF fasting, plasma, HPLC-MS/MS, mean
  AUC 0–24: 1910 ng·h/mL
[1]; [11]
  AUC 0–24 /D: 103 [h.ng/mL]/mg
  C max /D: 14.9 [ng/mL]/mg
[1]; SAD, single oral 40 mg LSF fasting, plasma, HPLC-MS/MS, mean
  AUC last: 16 400 h.ng/mL
[1]; healthy subjects, oral, across the 2 studies
  Half-life during the first 24 hours after dosing (distribution phase): around 11 hours
[1]; [12]
  AUC 0–24 h: 100 ng·h/mL
  AUC(0-t): 182 ng·h/mL
  Cmax: 18.6 ng/mL
[1]; human, in vivo, po, 1 mg, SAD, single oral 1 mg LSF fasting, plasma, mean
  half-life: 42.7 h
[1]; human, in vivo, po, 1 mg, SAD, single oral 1 mg LSF fasting, plasma
  Tmax: 1 h
[1]; [13]
  AUC 0–24 h: 250 ng·h/mL
  AUC(0-t): 845 ng·h/mL
  Cmax: 37.6 ng/mL
[1]; human, in vivo, po, 2.5 mg, SAD, single oral 2.5 mg LSF fasting, plasma, mean
  half-life: 449 h
[1]; human, in vivo, po, 2.5 mg, SAD, single oral 2.5 mg LSF fasting, plasma
  Tmax: 1 h
[1]; human, in vivo, po, 5 mg
  F rel: 35%
[1]; [14]
  AUC(0-t): 501 ng·h/mL
  Cmax: 25.7 ng/mL
[1]; human, in vivo, po, 5 mg, SAD, single oral 5 mg IRT fasting, plasma, mean
  half-life: 267 h
[1]; human, in vivo, po, 5 mg, SAD, single oral 5 mg IRT fasting, plasma
  Tmax: 2 h
[1]; [15]
  AUC(0-t): 1700 ng·h/mL
  Cmax: 92.1 ng/mL
[1]; human, in vivo, po, 5 mg, SAD, single oral 5 mg LSF fasting, plasma, mean
  half-life: 415 h
[1]; human, in vivo, po, 5 mg, SAD, single oral 5 mg LSF fasting, plasma
  Tmax: 1 h
[1]; [16]
  AUC 0–24 h: 673 ng·h/mL
  AUC(0-t): 3390 ng·h/mL
  Cmax: 71.9 ng/mL
[1]; human, in vivo, po, 10 mg, SAD, single oral 10 mg LSF Fed, plasma, mean
  half-life: 531 h
[1]; human, in vivo, po, 10 mg, SAD, single oral 10 mg LSF Fed, plasma
  Tmax: 2.5 h
[1]; [17]
  AUC 0–24 h: 996 ng·h/mL
  AUC(0-t): 3070 ng·h/mL
  Cmax: 172 ng/mL
[1]; human, in vivo, po, 10 mg, SAD, single oral 10 mg LSF fasting, plasma, mean
  half-life: 365 h
[1]; human, in vivo, po, 10 mg, SAD, single oral 10 mg LSF fasting, plasma
  Tmax: 1 h
[1]; [18]
  AUC(0-t): 667 ng·h/mL
  Cmax: 30.2 ng/mL
[1]; human, in vivo, po, 20 mg, SAD, single oral 20 mg IRT fasting, plasma, mean
  half-life: 348 h
[1]; human, in vivo, po, 20 mg, SAD, single oral 20 mg IRT fasting, plasma
  Tmax: 2 h
[1]; [19]
  AUC(0-t): 7480 ng·h/mL
  Cmax: 306 ng/mL
[1]; human, in vivo, po, 20 mg, SAD, single oral 20 mg LSF fasting, plasma, mean
  half-life: 590 h
[1]; human, in vivo, po, 20 mg, SAD, single oral 20 mg LSF fasting, plasma
  Tmax: 1.5 h
[1]; [20]
  AUC 0–24 h: 4110 ng·h/mL
  Cmax: 595 ng/mL
[1]; human, in vivo, po, 40 mg, SAD, single oral 40 mg LSF fasting, plasma, mean
  half-life: 392 h
[1]; human, in vivo, po, 40 mg, SAD, single oral 40 mg LSF fasting, plasma
  Tmax: 1.05 h
[1]; in vivo
  Frel, relative bioavailability IR tablet vs. LSF: 11.71%
[2]
  Radioactivity levels in tissues vs blood, radio-labelled emodepside: higher in most tissues than in the blood
